# Reference: patent US4481200A, “α2 -Adrenoceptor antagonistic benzoquinolizines” (John Wyeth & Brother, Limited, priority 1982, dated 1984)
# What was measured:
# [1] = target: T1, α2-adrenoceptor (Rattus norvegicus, UniProt P22909); test: α2-adrenoceptor antagonistic activity on the rat field stimulated vas deferens preparation (clonidine as agonist); settings: antagonism of clonidine, 37°, 90 min after introduction of antagonist, Arunlakshana & Schild, read-out: pA2 (α2) (converted)
# T1 construct: from tissue; host or cells: rat vas deferens
# T1 sequence (P22909 1-465): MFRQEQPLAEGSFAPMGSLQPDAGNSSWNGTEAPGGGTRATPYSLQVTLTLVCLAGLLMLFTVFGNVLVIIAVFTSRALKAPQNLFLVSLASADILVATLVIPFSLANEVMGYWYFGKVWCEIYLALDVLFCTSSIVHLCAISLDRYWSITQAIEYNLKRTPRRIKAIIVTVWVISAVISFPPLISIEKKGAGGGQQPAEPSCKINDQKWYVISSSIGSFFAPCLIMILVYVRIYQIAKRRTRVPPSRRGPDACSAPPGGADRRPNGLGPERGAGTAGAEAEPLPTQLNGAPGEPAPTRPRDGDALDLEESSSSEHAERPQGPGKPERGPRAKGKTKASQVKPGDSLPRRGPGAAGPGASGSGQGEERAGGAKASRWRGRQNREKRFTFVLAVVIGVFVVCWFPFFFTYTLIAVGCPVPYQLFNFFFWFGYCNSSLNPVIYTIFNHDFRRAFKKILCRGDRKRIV
# Protocol: The compounds of the invention were tested for α2 -adrenoceptor antagonistic activity on the rat field stimulated vas deferens preparation using a modification of the method of Drew, Eur. J. Pharmac., 1977, 42, 123-130. The procedure is described below.
# Desheathed vasa deferentia from sexually mature rats were suspended in a 6 ml organ bath in Krebs solution at 37° and bubbled with 5% CO2 in oxygen. Platinum ring electrodes were positioned above and below the tissue for field stimulation, The stimulus parameters being 0.1 Hz 1 ms pulse width at supramaximal voltage. Twitch responses were recorded isotonically with a 0.5 g loading. Clonidine hydrochloride was used as the α-adrenoceptor agonist and cumulative concentration-response curves were constructed for the inhibition of twitch obtained with clonidine in the range 0.125 to 4 ng ml^-1. After washing out clonidine, the twitch response quickly recovered and an antagonist was then introduced into the Krebs reservoir. Clonidine concentration-response curves were repeated 90 min after introduction of the antagonist. The concentration of clonidine producing 50% inhibition of twitch before and after introduction of antagonist were obtained and the dose-ratio for clonidine was calculated. Various concentrations of the antagonists were used.
# Chemother., 1959, 14, 48-58 and the values of pA2 and slope were calculated.
# [2] = target: T2, α1-adrenoceptor (Rattus norvegicus, UniProt P43140); test: α1 antagonistic activity on the isolated anococcygeus muscle of the rat (phenylephrine or methoxamine as agonist); settings: antagonism of phenylephrine or methoxamine, rat anococcygeus muscle, 37°, 30 min equilibration, 10^-6 to 10^-4 M; Arunlakshana & Schild; read-out: pA2 (α1) (converted)
# T2 construct: One method involves assessing the activity on the isolated anococcygeus muscle of the rat; from tissue; host or cells: rat anococcygeus muscle
# T2 sequence (P43140 1-466): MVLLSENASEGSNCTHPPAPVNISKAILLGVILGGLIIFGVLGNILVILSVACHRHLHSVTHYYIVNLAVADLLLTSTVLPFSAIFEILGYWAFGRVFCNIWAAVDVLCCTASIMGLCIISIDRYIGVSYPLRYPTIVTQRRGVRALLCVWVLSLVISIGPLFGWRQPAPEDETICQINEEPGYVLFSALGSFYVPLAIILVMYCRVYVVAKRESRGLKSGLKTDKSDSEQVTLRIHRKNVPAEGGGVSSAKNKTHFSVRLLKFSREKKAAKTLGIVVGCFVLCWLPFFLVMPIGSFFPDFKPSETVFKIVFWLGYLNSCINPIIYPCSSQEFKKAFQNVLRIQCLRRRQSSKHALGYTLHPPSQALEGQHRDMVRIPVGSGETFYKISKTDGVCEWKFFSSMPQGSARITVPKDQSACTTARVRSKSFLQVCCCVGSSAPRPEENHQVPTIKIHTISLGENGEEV
# Description: (§1) The compounds of the invention antagonise the α2 -adrenoceptors to a much greater extent than the α1 -adrenoceptors. The α1 antagonistic activity can be evaluated by a number of different methods. One method involves assessing the activity on the isolated anococcygeus muscle of the rat. The method is based on that of Gillespie, Br.J.Pharmac., 1972, 45, 404-416. In the procedure male rats (250-360 g) are killed by a blow on the head and bled. The two anococcygeus muscles are removed from their position in the midline of the pelvic cavity, where they arise from the upper coccygeal vertebrae. The muscles are suspended in 5 ml organ baths in Krebs solution containing 10^-4 M ascorbic acid, to prevent drug oxidation. The tissues are gassed with a 95% oxygen, 5% CO2 mixture and maintained at 37°. Longitudinal muscle contractions are recorded using isotonic transducers. Cumulative dose response curves are then obtained to phenylephrine or in some cases methoxamine, both agents being […] alpha adrenoceptor agonists. The concentration range of phenylephrine or methoxamine used is 0.02 to 0.8 μg.ml^-1. The agonist is then washed from the bath and the test drug added to the bathing medium at a concentration of 10^-6 M. After 30 min equilibration with the test drug a further agonist dose response curve is obtained. The washing, equilibration and agonists dosing procedures are then repeated using 10^-5 M and 10^-4 M solutions of the test drug. Estimates of the pA2 value for the test drug as an antagonist of phenylephrine or methoxamine were made from the agonist dose-ratios using the method of Arunlakshana & Schild, Br.J.Pharmac. Chemother., 1959, 14, 48-58.
# [3] = tested on: α1-adrenoceptor; test: as above; settings: antilog of (α2 pA2-α1 pA2)
# Description: as §1
SMILES,Kb [1],Kb [2],α2/α1 selectivity [3]
"CN(C)S(=O)(=O)N(C)[C@@H]1CCN2CCc3ccccc3[C@@H]2C1 (relative stereo) [Example 2, N,N,N'-Trimethyl-N'-[1,3,4,6,7,11bα-hexahydro-2H-benzo[a]quinolizin-2β-yl]sulphamide]",39.8 nM,1120 nM,28
"CC(C)NS(=O)(=O)N(C)[C@@H]1CCN2CCc3ccccc3[C@@H]2C1 (relative stereo) [Example 4, N-(i-Propyl)-N'-(1,3,4,6,7,11bα-hexahydro-2H-benzo[a]quinolizin-2β-yl)-N'-methylsulphamide]",37.2 nM,363 nM,10
"CNS(=O)(=O)N(C)[C@@H]1CCN2CCc3ccccc3[C@@H]2C1 (relative stereo) [Example 1, N-Methyl-N-(1,3,4,6,7,11bα-hexahydro-2H-benzo[a]quinolizin-2β-yl)-N'-methylsulphamide]",36.3 nM,646 nM,18
"CN(C)CCS(=O)(=O)N(C)[C@@H]1CCN2CCc3ccccc3[C@@H]2C1 (relative stereo) [Example 3, N-Methyl-N-(1,3,4,6,7,11bα-hexahydro-2H-benzo[a]quinolizin-2β-yl)-2-dimethylaminoethanesulphonamide]",55 nM,2510 nM,46
